Experiments:
[1] = molecular target: T1, Protein tyrosine phosphatase 1B (PTP1B) (Homo sapiens, UniProt P18031); assay: ligand fishing with E. coli surface-displayed PTP1B, HPLC readout, with control cells; not fished by MNPs-PTP1B; assay type: cell-based
T1 construct: gene PTPN1
T1 sequence (P18031 1-435): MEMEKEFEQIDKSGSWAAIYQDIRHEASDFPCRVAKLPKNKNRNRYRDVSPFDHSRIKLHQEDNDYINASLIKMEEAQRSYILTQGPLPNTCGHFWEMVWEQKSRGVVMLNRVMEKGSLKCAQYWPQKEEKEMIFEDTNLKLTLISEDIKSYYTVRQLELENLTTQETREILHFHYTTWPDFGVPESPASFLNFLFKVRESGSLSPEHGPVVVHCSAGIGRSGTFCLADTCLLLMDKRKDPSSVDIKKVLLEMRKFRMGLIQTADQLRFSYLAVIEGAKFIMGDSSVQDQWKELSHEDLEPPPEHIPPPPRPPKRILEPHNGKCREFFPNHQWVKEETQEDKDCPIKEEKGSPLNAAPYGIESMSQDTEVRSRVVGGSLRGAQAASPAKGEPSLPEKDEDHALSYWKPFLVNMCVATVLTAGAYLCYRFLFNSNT

[2] = molecular target: T1, Protein tyrosine phosphatase 1B (PTP1B); assay: pNPP phosphatase inhibition assay with Lineweaver-Burk kinetics (Ki […], Kis […]); also fished out by PTP1B displayed on E. coli; assay type: biochemical

`C[C@@H]1O[C@@H](OC[C@H]2O[C@@H](Oc3c(-c4ccc(O)c(O)c4)oc4cc(O)cc(O)c4c3=O)[C@H](O)[C@@H](O)[C@@H]2O)[C@H](O)[C@H](O)[C@H]1O` [II, rutin] was tested, and the “ligand fishing with E. coli surface-displayed PTP1B, HPLC readout, with control” value [1] was “only EC-PTP1B extracted the positive compound rutin, indicating that EC-PTP1B was efficient for fishing the enzyme ligand”.
For `O=C(/C=C/c1ccc(O)c2c1[C@H](C(=O)O[C@H](Cc1ccc(O)c(O)c1)C(=O)O)[C@@H](c1ccc(O)c(O)c1)O2)O[C@H](Cc1ccc(O)c(O)c1)C(=O)O` [salvianolic acid B], the IC50 [2] was 23.3 µM.
